These results are taken from US20090111736A1, “Orally-Absorbed Solid Dose Formulation for Vancomycin” (SRI International, priority 2007, published 2009).

Structures can show the parent of a compound that is named as a salt.

This data set can be described thus: In vitro mucosal-to-serosal vancomycin transport, modified Ussing chambers, jejunum. The data set is classed as in vitro ADME, rat. As to conditions: male, rat. An excerpt:
We investigated regional variation in permeation of vancomycin (VCM) across various segments of rat intestine and colon in vitro by mounting isolated segments of rat intestine and colon between horizontal modified Ussing chambers. The effects of drug concentration and of addition of a p-glycoprotein inhibitor or permeation enhancer(s) as formulation additives on VCM permeation were also studied in vitro using segments of rat jejunum.
Methods: A modified Ussing system (Easy mount Ussing system, Physiological Instruments Inc., CA, Item # EM-CSYS-8) with eight sets of chambers was used for all in vitro studies; each set consisted of two parallel diffusion chambers, a heating block for temperature control, needle valves for gas flow adjustment and gas mixing, and Ag/AgCl voltage and current electrodes for measuring transepithelial voltage and for passing current.
Harvesting of required small intestinal or colon segments of a male rat was performed using experimental procedures described in the literature (Gotoh et al., J Biomol Screen (2005) 10:517-23). The harvested segments of small intestine or colon were mounted on sliders placed between the two horizontal chambers of a modified Ussing system.
VCM was dissolved in HEPES buffer pH 7.4 (Table 1) previously saturated with 100% O2 or HEPES buffer containing additives selected from permeation enhancer(s) and/or an efflux transport inhibitor (Table 2) to obtain predetermined concentrations of drug and additive(s).
Drug transport across epithelial membranes of harvested rat small intestine and colon segments, in mucosal-to-serosal (M-to-S) direction, was studied using modified Ussing Chambers. Aliquots of HEPES buffer (5 ml) were initially added to both the mucosal and serosal chambers and allowed to equilibrate for 20 minutes. The HEPES buffer in the mucosal chamber was replaced by a study sample containing VCM alone or VCM and selected additive(s) in HEPES buffer, e.g., 5 mg/mL of VCM dissolved in HEPES buffer containing 10% w/w Labrasol®. Aliquots of 0.5 mL buffer solutions were removed periodically from serosal chambers, and replaced with equal volumes of fresh warm (37±2° C.) HEPES buffer previously saturated with 100% O2. […]
Changes in transepithelial short-circuit current (in micro-Amps) and membrane resistance (in Ohms) as a function of time were monitored continuously during in vitro studies to serve as indicators of tissue viability and drug permeability, respectively. The buffer samples from the receptor chambers were analyzed for VCM content on a high pressure liquid chromatograph (HPLC; Hewlett Packard Model 1100 series).
The analysis of VCM samples was performed using a reverse phase gradient HPLC method, with a Hypersil BDS C18 column, 5 μm, 150×4.6 mm., mobile phase consisting of 5 mM potassium phosphate monobasic in water (pH 3) as solvent A and acetonitrile as solvent B at a flow rate of 1 ml/min (Farin et al., J Pharm Biomed Anal (1998) 18:367-72). The eluant was monitored by a UV/diode array detector at 280 nm.
To compare data obtained from different in vitro experiments, the apparent permeability coefficients were calculated using the equation: […]
Where dQ/dt is the linear appearance rate of mass in receiver compartment, C0 is the initial solute concentration in donor compartment, and A is the surface area (Luo et al., Drug Metab Dispos (2002) 30:763-70).

For orientation: Papp means the rate of passage across a membrane or cell layer, normalised by area and donor concentration. On to `CN[C@H](CC(C)C)C(=O)N[C@H]1C(=O)N[C@@H](CC(N)=O)C(=O)N[C@H]2C(=O)N[C@H]3C(=O)N[C@H](C(=O)N[C@H](C(=O)O)c4cc(O)cc(O)c4-c4cc3ccc4O)[C@H](O)c3ccc(c(Cl)c3)Oc3cc2cc(c3O[C@@H]2O[C@H](CO)[C@@H](O)[C@H](O)[C@H]2O[C@H]2C[C@](C)(N)[C@H](O)[C@H](C)O2)Oc2ccc(cc2Cl)[C@H]1O` [Vancomycin hydrochloride], for which the Papp at 2.5 hr, 5 mg/ml was determined as 0.62 ± 0.07 ×10⁻⁶ cm/s (pH 7.4, 5 mg/ml, HEPES buffer alone, jejunum); 0.79 ± 0.08 ×10⁻⁶ cm/s (pH 7.4, with quinidine 0.15 mM in the mucosal chamber, 5 mg/ml, jejunum, 0.15 mM Quinidine in mucosal chamber); 2.06 ± 0.16 ×10⁻⁶ cm/s (pH 7.4, with quinidine 0.15 mM in the serosal chamber, 5 mg/ml, jejunum, 0.15 mM Quinidine in serosal chamber). Besides, the Papp at 5 mg/ml (pH 7.4, 5 mg/ml, jejunum, 1.0 mM sodium decanoate in mucosal chamber) came out at 1.74 ± 0.1 ×10⁻⁶ cm/s; the Papp at 5 mg/ml (pH 7.4, 5 mg/ml, jejunum, 1.0 mM sodium decanoate in serosal chamber) was 0.6 ± 0.02 ×10⁻⁶ cm/s; the Papp at 5 mg/ml (pH 7.4, 5 mg/ml, jejunum, HEPES buffer containing 5% w/w Gelucire ® 44/14) was determined as 0.78 ± 0.03 ×10⁻⁶ cm/s; the Papp at 5 mg/ml (pH 7.4, 5 mg/ml, jejunum, HEPES buffer containing 5% w/w Gelucire ® 44/14 + 5% w/w Labrasol ®) came to 0.71 ± 0.03 ×10⁻⁶ cm/s; the Papp at 5 mg/ml (pH 7.4, 5 mg/ml, jejunum, HEPES buffer containing 5% w/w Polysorbate-80) was determined as 0.88 ± 0.09 ×10⁻⁶ cm/s; the Papp at 5 mg/ml (pH 7.4, 5 mg/ml, jejunum, HEPES buffer containing 5% w/w Polysorbate-80 + 5% w/w Labrasol ®) was determined as 0.53 ± 0.06 ×10⁻⁶ cm/s. In addition, the Papp at 5 mg/ml runs as follows: (pH 7.4, 5 mg/ml, jejunum, HEPES buffer containing 5% w/w Vitamin E TPGS + 5% w/w Labrasol ®) 0.56 ± 0.06 ×10⁻⁶ cm/s; (pH 7.4, 5 mg/ml, jejunum, HEPES buffer containing 10% w/w Labrasol ®) 0.36 ± 0.06 ×10⁻⁶ cm/s; (pH 7.4, 5 mg/ml, jejunum, HEPES buffer containing 20% w/w Bile salts) 3.67 ± 0.58 ×10⁻⁶ cm/s. Further, the Papp at 2.5 hr, 10 mg/mL (pH 7.4, 10 mg/mL, HEPES buffer alone, jejunum) is 0.57 ± 0.13 ×10⁻⁶ cm/s. Under “pH 7.4, 25 mg/mL, HEPES buffer alone, jejunum”, the Papp at 2.5 hr, 25 mg/mL came out at 0.54 ± 0.69 ×10⁻⁶ cm/s. The same molecule came in with a Papp at 2.5 hr, 50 mg/mL (pH 7.4, 50 mg/mL, HEPES buffer alone, jejunum) of 0.39 ± 0.47 ×10⁻⁶ cm/s. Besides, the Papp at 2.5 hr, 5 mg/mL (pH 7.4, jejunum, in the presence of 10% w/w Labrasol®) turned out to be 0.36 ×10⁻⁶ cm/s.
